Measurements taken from patent US6432403B1, “Antibodies to polypeptides having prenylcysteine carboxyl methlytransferase activity or inhibiting activity” (New York University, priority 1997, dated 2002).
Each block holds one compound with its values, some of them ahead of it.

Key:
[1] = Prenylcysteine carboxyl methyltransferase activity of membranes, AFC as substrate; type: biochemical, human; conditions: for Relative enzymatic activity: COS cell membranes, Vector Alone = 1; for Increase: relative to COS + Vector
Description: Expression of Recombinant pcCMT: The 3.6-kb full-length HL60 pcCMT cDNA and an 852-bp cDNA fragment comprising the ORF were subcloned into the eukaryotic expression vectors pCDM8 and pcDNA3.1 (Invitrogen, Carlsbad, Calif.). Myc-tagged pcCMT was made by adding a sequence encoding the 10-amino acid epitope of c-Myc recognized by monoclonal antibody 9E10 to the C terminus of pcCMT using patch PCR and subcloning into pcDNA3.1. pcCMT tagged at the C terminus with GFP was generated by subcloning the pcCMT ORF into the expression vector pGFP-N3 (Clontech). For pcCMT enzymatic assays, COS-1 cells were grown in 10-cm dishes and transfected with pcCMT with DEAE-dextran as described (Aruffo et al, 1987). For fluorescence microscopy, exponentially growing COS-1, CHO, and NIH3T3 cells were plated the day prior to transfection at 50-60% confluence and transfected with 2 μg of DNA using LipofectAMINE (Life Technologies, Inc.), Gaithersburg, Md.) according to the manufacturer's instructions.
(§1) Prenylcysteine Carboxyl Methyltransferase Assays: COS-1 cells transfected with HL60 pcCMT or vector alone were harvested at 48 hours with 5 mM EDTA and subjected, in parallel with human neutrophils, to nitrogen cavitation and discontinuous sucrose density centrifugation as described (Philips et al, 1991). Light membranes were assayed for pcCMT activity qualitatively by S-adenosyl-L- [methyl-^3H]methionine labeling (SDS-polyacrylamide gel electrophoresis and flurography) of Rho GTPases partially purified from neutrophil cytosol and quantitatively by carboxyl methylation of N-acetyl-S-trans,trans-farnesyl-L-cysteine (AFC) (heptane partition, alkaline hydrolysis, and measurement of vapor phase [^3H]methanol) as described (Philips et al, 1995)
(§2) To determine whether the HL60 STE14 protein homolog has prenylcysteine carboxyl methyltransferase activity, the cDNA was subcloned into a mammalian expression vector PCDM8 (Invitrogen, San Diego, Calif.) and transiently overexpressed ectopically in COS-1 cells. Membranes prepared from these cells were used as a source of recombinant enzyme. Farnesylated Ras GTPases require detergent for extraction from membranes. Therefore, geranylgeranylated neutrophil cytosolic Rho accessory protein, guanine nucleotide dissociation inhibitor (GDI), were utilized as endogenous substrates in an in vitro assay (FIGS. 5A and 5B). Untransfected COS-1 cell membranes had little pcCMT activity toward Rho proteins compared with that of membranes derived from human neutrophils (FIG. 5A). Transfection with the HL60 cDNA conferred pcCMT activity toward Rho GTPases on COS-1 membranes, and this activity was blocked by the competitive pcCMT inhibitor, AFC, with an ED50 (10 μM) identical to that for endogenous neutrophil pcCMT. Carboxyl methylation of Rac2 and RhoA by HL60 pcCMT-transfected COS-1 cell membranes was enhanced by guanosine 5′-3-O-(thio)triphosphate (GTPγS) (FIG. 5B), similar to the activity observed in neutrophil membranes (Philips et al, 1993). Carboxyl methyltransferase activity was quantitated in membranes of COS-1 cells transfected with HL60 pcCMT using prenylcysteine analogs as defined substrates (Philips et al, 1995). Untransfected COS-1 cell membranes had […] (n=5) of the pcCMT specific activity of neutrophil membranes toward AFC.

[2] = target: T1, human pcCMT (Homo sapiens, UniProt O60725); test: Carboxyl methylation of prenylcysteine analogs (AFC, AGGC) as defined substrates by the recombinant enzyme in COS-1 membranes; type: biochemical
T1 construct: The 3.6-kb full-length HL60 pcCMT cDNA and an 852-bp cDNA fragment comprising the ORF were subcloned into the eukaryotic expression vectors; expressed in transfected cells; host or cells: COS-1 cells (pCDM8 vector, DEAE-dextran transfection); light membranes after nitrogen cavitation
Method: as §1, §2
The Michaelis constants of the recombinant enzyme, Km=7 μM for AFC and 0.6 μM for AGGC, were similar to those for the endogenous neutrophil enzyme (Pillinger et al, 1994). Thus, the cDNA described above encodes authentic human myeloid pcCMT.

[3] = target: T1, human pcCMT; test: Carboxyl methylation of Rho GTPases by COS-1 cell membranes expressing human pcCMT (S-adenosyl-L-[methyl-3H]methionine labeling, SDS-PAGE, fluorography); type: biochemical; conditions: HL60 pcCMT-transfected COS-1 cell membranes; 10 μM
Method: FIGS. 5A and 5B show the carboxyl methylation of ras-related GTPases by COS-1 cell membranes expressing ectopic human pcCMT. In FIG. 5A, neutrophil cytosol (CS) containing a mixture of Rho family proteins complexed with Rho-GDI (lanes 2, 3, 6, 7, 10, 11) or RhoA-GDI complexes partially purified from CS (lanes 4, 8, 12) were incubated with the methyl donor S-adenosyl-L-[methyl-^3H]methionine and light membranes derived from nitrogen cavitation of human neutrophils (lanes 1-4) or COS-1 cells transiently transfected with either human pcCMT (lanes 5-8) or vector alone (lanes 9-12). In some reactions (lanes 3, 7, 11) a competitive pcCMT inhibitor, AFC, was included. Reaction products were analyzed by SDS-PAGE and fluorography. The position of carboxyl methylated […] is indicated as is the position of protein phosphatase 2a (PP2a) that is methylated on a C-terminal leucine by an enzyme unrelated to pcCMT (Lee et al, 1993). […] Carboxyl methyltransferase activity was quantitated in membranes of COS-1 cells transfected with HL60 pcCMT using prenylcysteine analogs as defined substrates (Philips et al, 1995). […]

[4] = system: Δste14 yeast strain; test: ste14 complementation, patch mating test; type: cell-based, S. cerevisiae; conditions: cDNA expressed from a plasmid
Method: S. cerevisiae Strains, Growth, and ste14 Complementation: Complete (YEPD), synthetic (SD), and synthetic dropout media were prepared as described previously (Michaelis et al, 1988), except that dropout medium lacked cysteine. All experiments were performed at 30° C. Yeast transformations were carried out by either the lithium acetate method (Ito et al, 1983) or the Elble method (Elble, 1992). The ste14 deletion strains used are SM1188 (MATαΔste14-3:: TRP1 trp1 leu2 ura3 his4 can1) and SM1639 (MATαΔste14-4:: URA3 trp1 leu2 his4 can1) (Sapperstein et al, 1994). Plasmid expression of STE14 protein was accomplished by pSM1237 (CEN URA3 STE14). Human pcCMT was expressed in yeast by subcloning the HL60 pcCMT ORF into the BamHI SalI sites of the yeast expression plasmid pG1 (2μ TRP1) that utilizes a GPD promoter and a PGK transcription terminator and polyadenylation signal (Schena et al, 1991). The resulting construct was designated pG1-hCMT (2μ TRP1 hCMT). Patch mating tests were carried out essentially as described previously (Michaelis et al, 1988). briefly, patches of MATα cells grown on selective media were replica plated onto a lawn of the […], SM1068 (lys1), that had been spread on an SD plate. […]
To determine whether human pcCMT could substitute in vivo for the S. cerevisiae pcCMT, STE14 protein, a complementation analysis was done using mating as a biological readout. […]

T1 sequence (O60725 whole entry, the tested form may be a part): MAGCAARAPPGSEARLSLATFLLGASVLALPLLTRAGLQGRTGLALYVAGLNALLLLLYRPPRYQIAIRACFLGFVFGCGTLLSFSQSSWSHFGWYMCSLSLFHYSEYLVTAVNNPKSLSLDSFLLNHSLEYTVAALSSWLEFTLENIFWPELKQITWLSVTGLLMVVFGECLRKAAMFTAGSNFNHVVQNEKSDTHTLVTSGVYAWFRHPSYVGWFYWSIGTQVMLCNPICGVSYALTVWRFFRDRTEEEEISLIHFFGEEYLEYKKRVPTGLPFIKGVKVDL

Compound: PcCMT-Myc: pcCMT with the 10-amino acid c-Myc epitope added at the C terminus
- Relative enzymatic activity ([1]; Experiment #1): 11.1

Compound: pcCMT-FLAG: pcCMT with the 8-amino acid FLAG epitope as C-terminal extension
- Relative enzymatic activity ([1]; Experiment #2): 5.45
- Relative enzymatic activity ([1]; Experiment #3): 18.5

Compound: CC(=O)N[C@@H](CSC/C=C(\C)CC/C=C(\C)CC/C=C(\C)CCC=C(C)C)C(=O)O (stereo in doubt) [AGGC, N-acetyl-S-all-trans-geranylgeranyl-L-cysteine]
- Increase in carboxyl methylation of the substrate on pcCMT transfection ([2]; n=2): 18 fold
- Km ([2]; recombinant enzyme, read-out: Michaelis constant Km): 0.6 µM

Compound: HL60 pcCMT: human prenylcysteine carboxyl methyltransferase, 284 amino acid protein of SEQ ID NO:5, ectopically expressed in COS-1 cell membranes
- Relative enzymatic activity ([1]; Experiment #1): 14.1
- Relative enzymatic activity ([1]; Experiment #2): 5.4
- Relative enzymatic activity ([1]; Experiment #3): 19.6
- Specific AFC carboxyl methyltransferase activity ([1]; transfected COS-1 membranes, n=5, p<0.0005): 74.5 ± 6.8 pmol/mg/min
- Increase in specific AFC carboxyl methyltransferase activity ([1]; transfection of COS-1 cells): 18-53 fold
- Restoration of mating phenotype [4]: partially restored the mating phenotype

Further lines, results first:

- Activity ([1]; Experiment 2): 84.6 pmol/mg/min
- Increase ([1]; Experiment 2): 45 fold
- Activity ([1]; Experiment 3): 90.7 pmol/mg/min
- Increase ([1]; Experiment 3): 53 fold
Compound: COS + pcCMT ORF: membranes of COS cells transfected with pCDM8 + pcCMT ORF only

- Activity ([1]; Experiment 1): 62.7 pmol/mg/min
- Increase ([1]; Experiment 1): 12 fold
- Activity ([1]; Experiment 2): 17.7 pmol/mg/min
- Increase ([1]; Experiment 2): 9 fold
- Activity ([1]; Experiment 3): 35.3 pmol/mg/min
- Increase ([1]; Experiment 3): 21 fold
Compound: COS + pcCMT cDNA: membranes of COS cells transfected with pCDM8 + pcCMT full-length cDNA

- Effect on carboxyl methylation of Rac2 and RhoA [3]: enhanced
Compound: Nc1nc2c(ncn2[C@@H]2O[C@H](COP(=O)(O)OP(=O)(O)OP(O)(O)=S)[C@@H](O)[C@H]2O)c(=O)[nH]1 [GTPγS, guanosine 5′-3-O-(thio)triphosphate]
